The source made the active and inactive calls.
Assays:
[1] = test system: Escherichia coli; experiment: microbe, parasite or virus in culture
[2] = NIH3T3 cell viability loss – ATP luminescence, mouse fibroblasts, counter-screen, dose response (AID 2010); format: functional, cell-based;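 further: cells exposed to compound for about 90 hours before reading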
[3] = test system: Escherichia coli; experiment: microbe, parasite or virus in culture; remark: listed apart in the source
[4] = Trypanosoma cruzi growth suppression in host cells – NIH3T3 host cells, beta-gal luminescence, confirmation (AID 2044); format: functional, cell-based;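 further: intracellular parasites grown in NIH/3T3 mouse fibroblasts as host cells; luminescent beta-galactosidase reporter signal from transgenic T. cruzi replicating inside host cells; inhibitors lower the luminescence signal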
[5] = molecular target: CAAX prenyl protease 2 (Homo sapiens, UniProt Q9Y256); experiment: inhibition of Ras-converting CAAX protease Rce1 – biochemical, yeast membranes, quenched-peptide fluorescence, cherry-pick, dose response (AID 588849)
[6] = molecular target: Trypsin (Sus scrofa, UniProt P00761); experiment: trypsin protease activity blockade – biochemical, quenched peptide fluorescence, cherry-pick, selectivity assay for Rce1 protease inhibitor project, dose response (AID 488789)
[7] = THP-1 cell cytotoxicity, dose response, cytotoxicity control for non-replicating M. tuberculosis project (AID 489025); format: functional
[8] = test system: A-375; experiment: proliferation inhibition in MITF-low A375 cells – cell-based, cherry-pick samples, set 2, counter-screen for MITF modulator project, dose response (AID 540335); format: functional; details: Homo sapiens
[9] = molecular target: T1, Insulin-degrading enzyme (Homo sapiens, UniProt P14735); experiment: recombinant IDE activation, cell-free – biochemical, fluorescence polarization, counter-screen for IDE activator project, dose response (AID 588681)
T1 sequence (P14735 whole entry): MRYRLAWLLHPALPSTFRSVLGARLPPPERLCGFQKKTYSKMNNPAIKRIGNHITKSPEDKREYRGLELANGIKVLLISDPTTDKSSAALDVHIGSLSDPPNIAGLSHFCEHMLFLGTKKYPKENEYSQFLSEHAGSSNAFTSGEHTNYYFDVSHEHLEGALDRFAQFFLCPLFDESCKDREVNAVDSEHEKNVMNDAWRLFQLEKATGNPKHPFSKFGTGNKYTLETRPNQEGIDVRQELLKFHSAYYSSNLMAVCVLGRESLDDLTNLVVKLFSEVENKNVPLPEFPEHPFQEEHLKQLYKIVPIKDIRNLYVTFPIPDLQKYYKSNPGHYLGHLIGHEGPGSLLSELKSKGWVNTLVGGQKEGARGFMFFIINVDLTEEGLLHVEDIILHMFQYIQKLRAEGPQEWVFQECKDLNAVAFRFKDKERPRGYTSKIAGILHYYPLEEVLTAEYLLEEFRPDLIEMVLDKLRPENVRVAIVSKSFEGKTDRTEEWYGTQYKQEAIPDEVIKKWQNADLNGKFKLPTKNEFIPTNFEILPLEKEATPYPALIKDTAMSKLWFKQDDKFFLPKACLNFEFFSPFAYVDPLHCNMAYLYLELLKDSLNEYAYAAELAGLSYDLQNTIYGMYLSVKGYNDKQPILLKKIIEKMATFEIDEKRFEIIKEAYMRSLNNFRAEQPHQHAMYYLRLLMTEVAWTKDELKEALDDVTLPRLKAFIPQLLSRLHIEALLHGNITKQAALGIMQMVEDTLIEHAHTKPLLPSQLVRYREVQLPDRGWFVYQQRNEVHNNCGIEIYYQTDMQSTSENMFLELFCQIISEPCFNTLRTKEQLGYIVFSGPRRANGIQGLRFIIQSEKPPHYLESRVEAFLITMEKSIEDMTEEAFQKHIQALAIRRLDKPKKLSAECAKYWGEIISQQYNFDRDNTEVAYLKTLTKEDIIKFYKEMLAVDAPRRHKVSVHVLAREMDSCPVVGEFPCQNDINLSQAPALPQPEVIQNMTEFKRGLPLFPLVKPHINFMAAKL

[10] = molecular target: T1, Insulin-degrading enzyme; experiment: cellular IDE activation of Abeta substrate cleavage – fluorescence polarization, HEK cells, dose response (AID 588439); format: functional, cell-based
[11] = test system: HEK293; experiment: optical interference in Abeta FP readout, dose response, artefact control for IDE activator project, biochemical, fluorescence polarization (AID 588442); format: functional, cell-based; details: Homo sapiens
[12] = HepG2 cell cytotoxicity, dose response, cytotoxicity control for non-replicating M. tuberculosis project (AID 489018); format: functional; details: Mycobacterium tuberculosis
[13] = viability of uninfected HEp-2 cells – cell-based, HTS, cytotoxicity control for RSV inhibitor project, dose response (AID 2410); format: functional; details: human respiratory syncytial virus
[14] = cells; format: functional
[15] = test system: HEK293; experiment: membrane integrity loss in HEK cells – cell-based, fluorescence, cytotoxicity control for IDE activator project, dose response (AID 588440); format: functional; details: Homo sapiens;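 further: cytotoxicity by LDH release measuring loss of membrane integrity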
[16] = Vero E6 cell cytotoxicity, dose response, cytotoxicity control for non-replicating M. tuberculosis project, secondary assay (AID 492998); format: functional, VeroE6; details: Vero C1008
[17] = molecular target: T2, Orexin/Hypocretin receptor type 1 (Homo sapiens, UniProt O43613); experiment: Fluorescence-based cell-based high throughput dose response assay for antagonists of the orexin 1 receptor (OX1R; HCRTR1). [Related pubchem assays (depositor defined):AID434989, AID435008, AID463079, AID485270, AID492963, AID492964, AID492965, AID493232, AID504717, AID504718]; format: functional
T2 sequence (O43613 whole entry): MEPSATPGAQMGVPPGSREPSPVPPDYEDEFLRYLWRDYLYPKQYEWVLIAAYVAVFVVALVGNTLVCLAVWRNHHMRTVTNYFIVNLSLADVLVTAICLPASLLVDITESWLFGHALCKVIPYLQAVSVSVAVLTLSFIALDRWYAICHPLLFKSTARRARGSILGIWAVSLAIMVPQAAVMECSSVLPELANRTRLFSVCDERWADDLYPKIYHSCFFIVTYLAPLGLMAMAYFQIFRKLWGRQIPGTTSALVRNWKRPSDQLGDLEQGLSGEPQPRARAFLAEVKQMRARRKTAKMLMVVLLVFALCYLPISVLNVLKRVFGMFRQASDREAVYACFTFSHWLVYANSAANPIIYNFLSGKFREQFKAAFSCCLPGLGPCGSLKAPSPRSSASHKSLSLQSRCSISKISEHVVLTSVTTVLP

[18] = Luminescence Cell-Based Dose Confirmation HTS to Identify Inhibitors of Platelet Dense Granule Release. [Related pubchem assays: 1663 (Primary HTS), 1678 (Summary of Project)]; format: functional
[19] = test system: BJ; experiment: growth inhibition of engineered Ras-driven BJ cells – cell-based, alamar blue fluorescence, cherrypicked samples, dose response (AID 2631); format: functional; details: Homo sapiens;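 further: confirmatory dose-response assay in RAS-dependent BJ fibroblasts engineered with TERT, LT and ST, with cytotoxicity read by fluorescence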
[20] = Counterscreen for antagonists of the orexin 1 receptor (OX1R; HCRTR1): Fluorescence-based cell-based high throughput dose response assay to identify antagonists of the parental CHO cell line. [Related pubchem assays (depositor defined):AID434989, AID435008, AID463079, AID485270, AID492963, AID492964, AID492965, AID493232, AID504699, AID504701]; format: functional
[21] = test system: BJ; experiment: BJ-TERT fibroblast viability loss – cell-based, RAS-independent, luminescence, dose response (AID 1933); format: functional; details: Homo sapiens
[22] = molecular target: T2, Orexin/Hypocretin receptor type 1; experiment: Homogeneous Time Resolved Fluorescence (HTRF)-based cell-based high throughput dose response assay for antagonists of the orexin 1 receptor (OX1R; HCRTR1). [Related pubchem assays (depositor defined):AID434989, AID435008, AID463079, AID485270, AID492963, AID492964, AID492965, AID493232, AID504717, AID504718]; format: functional
[23] = test system: BJ; experiment: BJ-TERT-LT-ST fibroblast viability loss – cell-based, RAS-independent, luminescence, dose response (AID 1935); format: functional; details: Homo sapiens;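 further: BJ fibroblasts immortalized with TERT plus LT and ST oncogenes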
[24] = DRD fibroblast viability loss – cell-based, non-viral oncogenic, luminescence, dose response (AID 1934); format: functional; details: Homo sapiens
[25] = test system: Jurkat; experiment: blockers of NF-kB activation in T cells – Jurkat, luciferase reporter, luminescence, B- and T-cell, dose response (AID 489004); format: functional, cell-based; details: Homo sapiens;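 further: NF-kB luciferase reporter Jurkat cells stimulated with PMA plus ionomycin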
[26] = HEK-293T viability loss, compound-treated – cell-based, uHTS hits, cytotoxicity control for B/T-cell NF-kB inhibitor project, dose response (AID 489019); format: functional;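 further: IC50 reflects cytotoxicity as loss of cell viability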
[27] = test system: BJ; experiment: cells; format: functional, cell-based; details: Homo sapiens
[28] = test system: CHO-K1; experiment: Counterscreen for antagonists of the orexin 1 receptor (OX1R; HCRTR1): Homogeneous time resolved fluorescence (HTRF)-based cell-based dose response assay to identify antagonists of the parental CHO-K1 cell line. [Related pubchem assays (depositor defined):AID434989, AID435008, AID463079, AID485270, AID492963, AID492964, AID492965, AID493232, AID504699, AID504701]; format: functional; details: Cricetulus griseus;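 further: potency for inhibition of ATP-stimulated IP1 production as antagonists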
[29] = molecular target: Luciferin 4-monooxygenase (Photinus pyralis, UniProt P08659); experiment: inhibition of purified Photinus pyralis luciferase – biochemical, luminescence, dose response (AID 1891)
[30] = molecular target: Mu-type opioid receptor (Homo sapiens, UniProt P35372); experiment: Counterscreen for agonists of heterodimerization of the mu 1 (OPRM1) and delta 1 (OPRD1) opioid receptors: Luminescence-based cell-based high throughput dose response assay to identify agonists of OPRM1 homodimerization.; format: functional;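 further: U2OS cells expressing OPRM1 and beta-arrestin as split beta-galactosidase partners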
[31] = alpha-synuclein stem-loop luciferase translation blockers – H4 neuroglioma cells, luminescence, confirmation (AID 1988); format: functional, cell-based
[32] = toxicity toward HepG2 liver cells – cell-based, plate reader, cherry-pick, antagonist series, cytotoxicity control, dose response (AID 743416); format: functional
[33] = luciferase reporter signal suppression in cells – H4 neuroglioma cells, luminescence, dose response (AID 1990); format: functional, cell-based
[34] = molecular target: Delta-type opioid receptor (Homo sapiens, UniProt P41143); experiment: Counterscreen for agonists of heterodimerization of the mu 1 (OPRM1) and delta 1 (OPRD1) opioid receptors: Luminescence-based cell-based high throughput dose response assay to identify agonists of OPRD1 homodimerization. [Related pubchem assays (depositor defined):AID504326, AID504355, AID504692, AID504904, AID504905]; format: functional
[35] = viability loss in HEK293 cells – cell-based, plate reader, cherry-picked samples, cytotoxicity control, dose response (AID 743446); format: functional
[36] = molecular target: 5-hydroxytryptamine receptor 5A (Homo sapiens, UniProt P47898); experiment: Counterscreen for agonists of OPRM1-OPRD1 heterodimerization: luminescence-based cell-based high throughput dose response assay to identify agonists of 5-hydroxytryptamine (serotonin) 5A receptor (HTR5A). [Related pubchem assays (depositor defined):AID504326, AID504355, AID504692, AID504904, AID504905]; format: functional
[37] = blockade of melanocortin 4 receptor signaling – cell-based, plate reader, cherry pick, counter-screen for LGR2 antagonist project, dose response (AID 743444); format: functional;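 further: transfected HEK 293 cells stimulated with alpha-MSH peptide; potency of inhibitors of the alpha-MSH evoked signal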
[38] = Luminescence Cell-Based Dose Retest to Confirm Inhibitors of Cancer Stem Cells. [Related pubchem assays (depositor defined):AID2717, AID2721]; format: functional; details: Homo sapiens
[39] = A549 cell cytotoxicity, dose response, cytotoxicity control, plate reader, cherry-pick, antagonist series (AID 743412); format: functional, cell-based
[40] = test system: INS1; experiment: INS-1E survival protection against cytokine death – cell-based, luminescence, retest, dose response (AID 449756); format: functional; details: Rattus norvegicus;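 further: cell death triggered by IL-1 beta plus TNF-alpha plus IFN-gamma mixture; protective hits raise ATP signal compared with cytokine alone wells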
[41] = blockers of bursicon-stimulated LGR2 cAMP reporter – cell-based, HEK293, CRE-luciferase reporter, cherry pick, set 2, dose response (AID 743343); format: functional;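 further: transfected cells were stimulated with diluted bursicon conditioned medium after compound addition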
[42] = Luminescence Cell-Based Dose Response HTS to Identify Inhibitors of 5'UTR Stem-Loop Driven Prion Protein mRNA Translation in H4 Neuroglioblastoma Cells. [Related pubchem assays: 1827 (Project Summary), 1813 (Primary HTS)]; format: functional
[43] = test system: Vero; experiment: cells; format: functional, cell-based; details: Chlorocebus sabaeus

Chain of Luciferin 4-monooxygenase (P08659 whole entry): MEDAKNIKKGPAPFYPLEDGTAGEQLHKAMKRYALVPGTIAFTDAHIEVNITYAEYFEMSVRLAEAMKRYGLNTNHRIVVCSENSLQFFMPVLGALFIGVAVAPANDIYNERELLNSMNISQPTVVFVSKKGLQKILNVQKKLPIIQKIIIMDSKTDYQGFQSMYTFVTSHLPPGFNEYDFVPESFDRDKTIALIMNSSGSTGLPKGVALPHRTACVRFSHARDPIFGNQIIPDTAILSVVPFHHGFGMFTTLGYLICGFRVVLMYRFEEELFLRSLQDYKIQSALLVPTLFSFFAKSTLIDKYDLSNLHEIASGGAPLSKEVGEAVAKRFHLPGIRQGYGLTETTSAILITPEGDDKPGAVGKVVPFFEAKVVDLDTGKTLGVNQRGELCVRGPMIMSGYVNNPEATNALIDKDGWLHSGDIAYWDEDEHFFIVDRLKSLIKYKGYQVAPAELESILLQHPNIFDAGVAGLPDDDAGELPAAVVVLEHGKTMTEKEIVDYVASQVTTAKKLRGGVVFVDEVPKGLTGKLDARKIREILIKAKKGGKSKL
Chain of Trypsin (P00761 whole entry): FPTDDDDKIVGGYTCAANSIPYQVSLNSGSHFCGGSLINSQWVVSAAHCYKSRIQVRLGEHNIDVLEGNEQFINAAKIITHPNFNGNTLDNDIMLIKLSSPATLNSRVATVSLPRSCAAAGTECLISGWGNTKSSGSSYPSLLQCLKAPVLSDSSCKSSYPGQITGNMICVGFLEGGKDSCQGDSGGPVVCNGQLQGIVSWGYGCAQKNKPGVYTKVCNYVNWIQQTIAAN
Chain of 5-hydroxytryptamine receptor 5A (P47898 whole entry): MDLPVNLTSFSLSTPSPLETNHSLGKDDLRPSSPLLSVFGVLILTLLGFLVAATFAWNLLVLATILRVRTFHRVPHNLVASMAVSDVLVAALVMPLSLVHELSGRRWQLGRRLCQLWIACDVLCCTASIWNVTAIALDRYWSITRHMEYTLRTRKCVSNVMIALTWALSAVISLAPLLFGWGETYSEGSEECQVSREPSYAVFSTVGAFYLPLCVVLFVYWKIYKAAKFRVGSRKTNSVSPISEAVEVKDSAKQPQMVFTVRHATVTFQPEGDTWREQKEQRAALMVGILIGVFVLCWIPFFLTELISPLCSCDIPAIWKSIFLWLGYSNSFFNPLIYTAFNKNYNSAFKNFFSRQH
Chain of Mu-type opioid receptor (P35372 whole entry): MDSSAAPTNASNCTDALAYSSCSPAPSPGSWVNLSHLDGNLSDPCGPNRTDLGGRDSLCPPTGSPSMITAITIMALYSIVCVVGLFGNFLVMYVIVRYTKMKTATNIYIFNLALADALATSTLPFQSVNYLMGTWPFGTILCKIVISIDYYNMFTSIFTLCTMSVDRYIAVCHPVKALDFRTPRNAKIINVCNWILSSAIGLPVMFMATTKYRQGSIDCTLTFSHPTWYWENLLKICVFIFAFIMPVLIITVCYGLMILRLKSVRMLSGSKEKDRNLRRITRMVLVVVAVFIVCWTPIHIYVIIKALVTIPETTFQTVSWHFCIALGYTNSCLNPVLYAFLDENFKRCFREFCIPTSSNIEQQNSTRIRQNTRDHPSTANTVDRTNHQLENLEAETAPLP
Chain of Delta-type opioid receptor (P41143 whole entry): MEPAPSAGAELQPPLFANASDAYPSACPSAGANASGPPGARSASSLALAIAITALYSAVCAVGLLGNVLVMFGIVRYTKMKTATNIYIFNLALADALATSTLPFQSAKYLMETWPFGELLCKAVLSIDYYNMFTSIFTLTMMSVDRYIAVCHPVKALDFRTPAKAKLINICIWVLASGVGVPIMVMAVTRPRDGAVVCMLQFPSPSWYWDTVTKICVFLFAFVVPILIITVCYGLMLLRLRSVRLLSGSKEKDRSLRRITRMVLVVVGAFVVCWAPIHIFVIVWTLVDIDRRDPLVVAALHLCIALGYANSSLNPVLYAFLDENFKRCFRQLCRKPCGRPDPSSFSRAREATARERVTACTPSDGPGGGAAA
Chain of CAAX prenyl protease 2 (Q9Y256 whole entry): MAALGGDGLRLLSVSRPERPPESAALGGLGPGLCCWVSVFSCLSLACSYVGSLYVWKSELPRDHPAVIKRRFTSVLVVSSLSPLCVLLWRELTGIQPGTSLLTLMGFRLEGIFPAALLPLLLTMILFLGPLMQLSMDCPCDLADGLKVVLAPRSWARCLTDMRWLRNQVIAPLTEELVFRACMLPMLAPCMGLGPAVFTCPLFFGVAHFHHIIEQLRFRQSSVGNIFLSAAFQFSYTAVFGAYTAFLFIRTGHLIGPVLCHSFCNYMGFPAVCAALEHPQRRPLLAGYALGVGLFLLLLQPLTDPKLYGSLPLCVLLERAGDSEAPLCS

O=[N+]([O-])c1ccc(-c2cc[nH]n2)o1
AC50 [1]: 24 µM (active) | EC50 [2]: > 60 µM (not active) | AC50 [3]: 12.5 µM (active) | EC50 [4]: 0.202 µM (active)

COc1cccc(Nc2nc(C)nc3c2oc2ccccc23)c1
AC50 [5]: 6 µM (active) | AC50 [6]: 17 µM (active)

CN(C)CCCN(C(=O)CCc1ccccc1)c1nc2ccc(Br)cc2s1
CC50 [7]: 17.6 µM (active) | AC50 [8]: 18.6 µM (active) | EC50 [9]: > 54.7 µM (inactive) | EC50 [10]: 29.5 µM (inactive) | EC50 [11]: > 55.9 µM (inactive) | CC50 [12]: 13.6 µM (active) | CC50 [13]: 15.7 µM (active) | IC50 [14]: 12.7 µM (active) | IC50 [15]: 25.4 µM (inactive) | CC50 [16]: 10.3 µM (active)

CCn1c(C)nc2cc(-c3nc4n(n3)Cc3ccccc3-4)ccc21
IC50 [17]: 48.1 µM (inactive) | EC50 [18]: 0.352 µM (active) | EC50 [19]: > 133 µM (inactive) | IC50 [20]: > 49.8 µM (inactive) | EC50 [21]: 2.18 µM (active) | IC50 [22]: 2.69 µM (active) | EC50 [23]: 6.25 µM (active) | EC50 [24]: 1.71 µM (active) | IC50 [25]: 0.23 µM (active) | IC50 [26]: > 80 µM (inactive) | EC50 [27]: 1.76 µM (active) | IC50 [28]: > 66.2 µM (inactive) | EC50 [29]: 0.311 µM (active)

COc1ccc(C(C)NCCC(c2ccc(OC(C)C)cc2)c2ccccc2OC)cc1 (stereo not drawn)
EC50 [30]: > 92.5 µM (inactive) | EC50 [31]: 7.93 µM (active) | AC50 [32]: 6.89 µM (active) | EC50 [33]: > 120 µM (not active) | EC50 [34]: > 92.5 µM (inactive) | AC50 [35]: 11.8 µM (active) | EC50 [36]: > 92.5 µM (inactive) | AC50 [37]: 28.8 µM (active) | AC50 [38]: 4.45 µM (active) | AC50 [39]: 6.71 µM (active) | AC50 [40]: 7.14 µM (active) | AC50 [41]: 23.2 µM (active) | EC50 [42]: 10.6 µM (active)

Cc1ccc(S(=O)(=O)N2C[C@@H](C)[C@]3(C2)[C@H](O)[C@H](OC(=O)Nc2cccs2)C[C@H]2C(=O)N(c4ccccc4)C(=O)[C@H]23)cc1
IC50 [43]: 22.1 µM (active)

— ChEMBL document CHEMBL1201862, “PubChem BioAssay data set” (2004)
